Article PMC4441267

How the values were obtained:
[1] = CuAAC macrocyclisation to 1,4-triazole (CuI 2 eq, DIPEA 3 eq), Boc retained; details: THF (reflux), 1.2 mM, 66.0 °C, 18.0 h
[2] = CuAAC macrocyclisation of azide/terminal alkyne linear peptidomimetics to 1,4-triazole (CuI 2 eq, DIPEA 3 eq, Ar-degassed), then Boc removal (TMSCl/MeOH GP4; HCl/dioxane GP5 for A13w, J13w); details: THF (reflux), 1.2 mM, 66.0 °C, 18.0 h, 2 steps

COC(=O)[C@@H]1CCCCn2cc(nn2)CCC(=O)NCCCC[C@H](NC(=O)OC(C)(C)C)C(=O)N[C@H](C(=O)OC)CCC(=O)N1 [Boc-Lys(4-pentynoyl)-Glu(gamma-Lys(N3)-OMe)-OMe]
ring closure, isolated yield ([1]; from C#CCCC(=O)NCCCC[C@H](NC(=O)OC(C)(C)C)C(=O)N[C@@H](CCC(=O)N[C@@H](CCCCN=[N+]=[N-])C(=O)OC)C(=O)OC, 24-membered ring): 69%

COC(=O)[C@@H]1CCCCn2cc(nn2)CCC(=O)NCCC[C@H](NC(=O)OC(C)(C)C)C(=O)N[C@H](C(=O)OC)CCC(=O)N1 [Boc-Orn(4-pentynoyl)-Glu(gamma-Lys(N3)-OMe)-OMe]
ring closure, isolated yield ([1]; from C#CCCC(=O)NCCC[C@H](NC(=O)OC(C)(C)C)C(=O)N[C@@H](CCC(=O)N[C@@H](CCCCN=[N+]=[N-])C(=O)OC)C(=O)OC, 23-membered ring): 71%

COC(=O)[C@@H]1CCCCn2cc(nn2)CNC(=O)NCC[C@H](NC(=O)OC(C)(C)C)C(=O)N[C@H](C(=O)OC)CCC(=O)N1 [Boc-Dab(CONH-propargyl)-Glu(gamma-Lys(N3)-OMe)-OMe]
ring closure, isolated yield ([1]; from C#CCNC(=O)NCC[C@H](NC(=O)OC(C)(C)C)C(=O)N[C@@H](CCC(=O)N[C@@H](CCCCN=[N+]=[N-])C(=O)OC)C(=O)OC, 22-membered ring): 67%

COC(=O)[C@@H]1CCCCn2cc(nn2)CNC(=O)NCCCC[C@H](NC(=O)OC(C)(C)C)C(=O)N[C@H](C(=O)OC)CCC(=O)N1 [Boc-Lys(CONH-propargyl)-Glu(gamma-Lys(N3)-OMe)-OMe]
ring closure, isolated yield ([1]; from C#CCNC(=O)NCCCC[C@H](NC(=O)OC(C)(C)C)C(=O)N[C@@H](CCC(=O)N[C@@H](CCCCN=[N+]=[N-])C(=O)OC)C(=O)OC, 24-membered ring): 62%

COC(=O)[C@@H]1CCCCn2cc(nn2)CNC(=O)NC[C@H](NC(=O)OC(C)(C)C)C(=O)N[C@H](C(=O)OC)CCC(=O)N1 [Boc-Dap(CONH-propargyl)-Glu(gamma-Lys(N3)-OMe)-OMe]
ring closure, isolated yield ([1]; from C#CCNC(=O)NC[C@H](NC(=O)OC(C)(C)C)C(=O)N[C@@H](CCC(=O)N[C@@H](CCCCN=[N+]=[N-])C(=O)OC)C(=O)OC, 21-membered ring): 99%

COC(=O)[C@@H]1CCCCn2cc(nn2)CNC(=O)NCCC[C@H](NC(=O)OC(C)(C)C)C(=O)N[C@H](C(=O)OC)CCC(=O)N1 [Boc-Orn(CONH-propargyl)-Glu(gamma-Lys(N3)-OMe)-OMe]
ring closure, isolated yield ([1]; from C#CCNC(=O)NCCC[C@H](NC(=O)OC(C)(C)C)C(=O)N[C@@H](CCC(=O)N[C@@H](CCCCN=[N+]=[N-])C(=O)OC)C(=O)OC, 23-membered ring): 60%

COC(=O)[C@@H]1CCCCn2cc(nn2)CCC(=O)NC[C@H](NC(=O)OC(C)(C)C)C(=O)N[C@H](C(=O)OC)CCC(=O)N1 [Boc-Dap(4-pentynoyl)-Glu(gamma-Lys(N3)-OMe)-OMe]
ring closure, isolated yield ([1]; from C#CCCC(=O)NC[C@H](NC(=O)OC(C)(C)C)C(=O)N[C@@H](CCC(=O)N[C@@H](CCCCN=[N+]=[N-])C(=O)OC)C(=O)OC, 21-membered ring): 94%

COC(=O)[C@@H]1CCCCn2cc(nn2)CCCC(=O)NC[C@H](NC(=O)OC(C)(C)C)C(=O)N[C@H](C(=O)OC)CCC(=O)N1 [Boc-Dap(5-hexynoyl)-Glu(gamma-Lys(N3)-OMe)-OMe]
ring closure, isolated yield ([1]; from C#CCCCC(=O)NC[C@H](NC(=O)OC(C)(C)C)C(=O)N[C@@H](CCC(=O)N[C@@H](CCCCN=[N+]=[N-])C(=O)OC)C(=O)OC, 22-membered ring): 69%

COC(=O)[C@@H]1CCCCn2cc(nn2)CCCC(=O)NCCCC[C@H](NC(=O)OC(C)(C)C)C(=O)N[C@H](C(=O)OC)CCC(=O)N1 [Boc-Lys(5-hexynoyl)-Glu(gamma-Lys(N3)-OMe)-OMe]
ring closure, isolated yield ([1]; from C#CCCCC(=O)NCCCC[C@H](NC(=O)OC(C)(C)C)C(=O)N[C@@H](CCC(=O)N[C@@H](CCCCN=[N+]=[N-])C(=O)OC)C(=O)OC, 25-membered ring): 70%

COC(=O)[C@@H]1CCCCn2cc(nn2)CCCC(=O)NCCC[C@H](NC(=O)OC(C)(C)C)C(=O)N[C@H](C(=O)OC)CCC(=O)N1 [Boc-Orn(5-hexynoyl)-Glu(gamma-Lys(N3)-OMe)-OMe]
ring closure, isolated yield ([1]; from C#CCCCC(=O)NCCC[C@H](NC(=O)OC(C)(C)C)C(=O)N[C@@H](CCC(=O)N[C@@H](CCCCN=[N+]=[N-])C(=O)OC)C(=O)OC, 24-membered ring): 99%

COC(=O)[C@@H]1CCCn2cc(nn2)CNC(=O)NCC[C@H](NC(=O)OC(C)(C)C)C(=O)N1 [Boc-Dab(CONH-propargyl)-Orn(N3)-OMe]
ring closure, yield over several steps ([2]; from C#CCNC(=O)NCC[C@H](NC(=O)OC(C)(C)C)C(=O)N[C@@H](CCCN=[N+]=[N-])C(=O)OC, 16-membered ring): 29%

COC(=O)[C@@H]1CCCCn2cc(nn2)CNC(=O)NCC[C@H](NC(=O)OC(C)(C)C)C(=O)N1 [Boc-Dab(CONH-propargyl)-Lys(N3)-OMe]
ring closure, yield over several steps ([2]; from C#CCNC(=O)NCC[C@H](NC(=O)OC(C)(C)C)C(=O)N[C@@H](CCCCN=[N+]=[N-])C(=O)OC, 17-membered ring): 99%

COC(=O)[C@@H]1CCCCn2cc(nn2)CCCC(=O)Nc2ccc(cc2)C[C@H](NC(=O)OC(C)(C)C)C(=O)N[C@H](C(=O)OC)CCC(=O)N1 [Boc-Phe(4-NH-5-hexynoyl)-Glu(gamma-Lys(N3)-OMe)-OMe]
ring closure, isolated yield ([1]; from C#CCCCC(=O)Nc1ccc(C[C@H](NC(=O)OC(C)(C)C)C(=O)N[C@@H](CCC(=O)N[C@@H](CCCCN=[N+]=[N-])C(=O)OC)C(=O)OC)cc1, 26-membered ring): 12%
